# Read-outs that look alike come from different tables or passages of the source.
# How the values were obtained:
# Experiment in all cases: KINOMEscan ScanTK
# Assay type in all cases: binding
# [1] = biological target: T1, YES (Homo sapiens, UniProt P07947)
# T1 construct: purchased Eurofins DiscoverX KINOMEscan (scanTK)
# [2] = biological target: T2, TNK2 (Homo sapiens, UniProt Q07912)
# T2 construct: purchased Eurofins DiscoverX KINOMEscan (scanTK)
# [3] = biological target: T3, VEGFR2 (Homo sapiens, UniProt P35968)
# T3 construct: purchased Eurofins DiscoverX KINOMEscan (scanTK)
# T3 sequence (P35968 20-1356): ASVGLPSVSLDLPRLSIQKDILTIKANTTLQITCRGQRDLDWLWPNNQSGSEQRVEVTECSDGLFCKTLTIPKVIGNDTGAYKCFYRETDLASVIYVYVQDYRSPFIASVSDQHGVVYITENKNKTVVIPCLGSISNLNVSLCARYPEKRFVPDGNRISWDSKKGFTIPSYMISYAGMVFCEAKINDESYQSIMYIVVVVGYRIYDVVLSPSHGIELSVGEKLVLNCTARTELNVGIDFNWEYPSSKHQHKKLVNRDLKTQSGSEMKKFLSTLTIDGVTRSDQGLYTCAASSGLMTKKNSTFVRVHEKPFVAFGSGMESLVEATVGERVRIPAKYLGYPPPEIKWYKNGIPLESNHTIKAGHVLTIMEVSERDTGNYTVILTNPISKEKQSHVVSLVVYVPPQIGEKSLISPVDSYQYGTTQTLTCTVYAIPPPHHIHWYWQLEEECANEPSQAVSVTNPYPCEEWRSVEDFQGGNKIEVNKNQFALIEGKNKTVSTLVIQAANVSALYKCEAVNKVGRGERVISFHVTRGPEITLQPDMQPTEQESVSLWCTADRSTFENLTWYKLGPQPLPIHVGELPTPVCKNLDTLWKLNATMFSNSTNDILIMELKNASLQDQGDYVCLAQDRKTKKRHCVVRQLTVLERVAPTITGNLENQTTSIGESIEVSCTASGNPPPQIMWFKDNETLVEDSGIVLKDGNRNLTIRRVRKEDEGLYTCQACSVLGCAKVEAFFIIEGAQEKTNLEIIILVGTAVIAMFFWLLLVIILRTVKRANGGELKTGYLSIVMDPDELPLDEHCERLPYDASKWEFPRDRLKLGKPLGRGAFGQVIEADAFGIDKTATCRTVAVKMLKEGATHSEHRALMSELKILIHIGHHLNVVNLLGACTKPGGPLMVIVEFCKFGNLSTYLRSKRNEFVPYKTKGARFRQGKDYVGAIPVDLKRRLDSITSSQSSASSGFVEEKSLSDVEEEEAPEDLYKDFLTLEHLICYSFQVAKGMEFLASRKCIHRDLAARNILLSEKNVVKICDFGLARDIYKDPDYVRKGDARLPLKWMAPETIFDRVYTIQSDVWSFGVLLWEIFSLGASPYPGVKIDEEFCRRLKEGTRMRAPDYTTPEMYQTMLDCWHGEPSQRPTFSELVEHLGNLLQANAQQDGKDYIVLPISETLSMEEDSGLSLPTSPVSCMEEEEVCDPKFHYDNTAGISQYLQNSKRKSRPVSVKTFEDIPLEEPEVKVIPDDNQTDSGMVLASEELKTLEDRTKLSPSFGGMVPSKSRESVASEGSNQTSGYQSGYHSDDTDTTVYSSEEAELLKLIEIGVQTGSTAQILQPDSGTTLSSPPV
# [4] = biological target: T4, TIE1 (Homo sapiens, UniProt P35590)
# T4 construct: purchased Eurofins DiscoverX KINOMEscan (scanTK)
# T4 sequence (P35590 22-1138): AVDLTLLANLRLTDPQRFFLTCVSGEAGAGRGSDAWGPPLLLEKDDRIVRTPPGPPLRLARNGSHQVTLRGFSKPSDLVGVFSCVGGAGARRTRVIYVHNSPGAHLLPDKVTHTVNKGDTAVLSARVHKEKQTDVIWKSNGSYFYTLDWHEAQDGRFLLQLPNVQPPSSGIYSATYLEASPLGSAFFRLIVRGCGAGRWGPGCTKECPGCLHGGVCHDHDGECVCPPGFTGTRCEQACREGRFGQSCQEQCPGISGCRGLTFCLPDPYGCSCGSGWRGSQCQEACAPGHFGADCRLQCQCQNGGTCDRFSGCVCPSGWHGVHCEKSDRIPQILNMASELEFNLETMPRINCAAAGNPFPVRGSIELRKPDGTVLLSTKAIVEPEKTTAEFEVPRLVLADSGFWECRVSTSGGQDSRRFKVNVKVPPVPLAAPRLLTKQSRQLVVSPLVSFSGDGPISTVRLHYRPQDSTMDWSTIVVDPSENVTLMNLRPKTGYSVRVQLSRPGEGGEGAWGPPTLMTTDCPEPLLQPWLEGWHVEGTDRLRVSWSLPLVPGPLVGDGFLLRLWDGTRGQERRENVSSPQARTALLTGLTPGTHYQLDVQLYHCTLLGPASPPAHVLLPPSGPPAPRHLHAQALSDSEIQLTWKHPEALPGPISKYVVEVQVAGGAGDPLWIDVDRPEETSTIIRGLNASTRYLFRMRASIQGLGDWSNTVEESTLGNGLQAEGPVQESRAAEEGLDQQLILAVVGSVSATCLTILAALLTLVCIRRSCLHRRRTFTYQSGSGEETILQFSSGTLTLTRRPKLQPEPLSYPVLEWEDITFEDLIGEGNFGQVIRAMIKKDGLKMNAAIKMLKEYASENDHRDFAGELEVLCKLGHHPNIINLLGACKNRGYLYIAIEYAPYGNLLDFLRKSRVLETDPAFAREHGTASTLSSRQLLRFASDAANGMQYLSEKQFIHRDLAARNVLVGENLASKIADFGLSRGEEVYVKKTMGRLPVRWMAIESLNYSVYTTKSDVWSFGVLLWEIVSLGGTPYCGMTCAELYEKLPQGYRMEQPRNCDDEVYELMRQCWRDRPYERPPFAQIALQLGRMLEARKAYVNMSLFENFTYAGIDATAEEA
# [5] = biological target: T5, ABL1(Y253F)-phosphorylated (Homo sapiens, UniProt P00519, Y253F)
# T5 construct: purchased Eurofins DiscoverX KINOMEscan (scanTK)
# [6] = biological target: T6, EPHB2 (Homo sapiens, UniProt P29323)
# T6 construct: purchased Eurofins DiscoverX KINOMEscan (scanTK)
# T6 sequence (P29323 19-1055): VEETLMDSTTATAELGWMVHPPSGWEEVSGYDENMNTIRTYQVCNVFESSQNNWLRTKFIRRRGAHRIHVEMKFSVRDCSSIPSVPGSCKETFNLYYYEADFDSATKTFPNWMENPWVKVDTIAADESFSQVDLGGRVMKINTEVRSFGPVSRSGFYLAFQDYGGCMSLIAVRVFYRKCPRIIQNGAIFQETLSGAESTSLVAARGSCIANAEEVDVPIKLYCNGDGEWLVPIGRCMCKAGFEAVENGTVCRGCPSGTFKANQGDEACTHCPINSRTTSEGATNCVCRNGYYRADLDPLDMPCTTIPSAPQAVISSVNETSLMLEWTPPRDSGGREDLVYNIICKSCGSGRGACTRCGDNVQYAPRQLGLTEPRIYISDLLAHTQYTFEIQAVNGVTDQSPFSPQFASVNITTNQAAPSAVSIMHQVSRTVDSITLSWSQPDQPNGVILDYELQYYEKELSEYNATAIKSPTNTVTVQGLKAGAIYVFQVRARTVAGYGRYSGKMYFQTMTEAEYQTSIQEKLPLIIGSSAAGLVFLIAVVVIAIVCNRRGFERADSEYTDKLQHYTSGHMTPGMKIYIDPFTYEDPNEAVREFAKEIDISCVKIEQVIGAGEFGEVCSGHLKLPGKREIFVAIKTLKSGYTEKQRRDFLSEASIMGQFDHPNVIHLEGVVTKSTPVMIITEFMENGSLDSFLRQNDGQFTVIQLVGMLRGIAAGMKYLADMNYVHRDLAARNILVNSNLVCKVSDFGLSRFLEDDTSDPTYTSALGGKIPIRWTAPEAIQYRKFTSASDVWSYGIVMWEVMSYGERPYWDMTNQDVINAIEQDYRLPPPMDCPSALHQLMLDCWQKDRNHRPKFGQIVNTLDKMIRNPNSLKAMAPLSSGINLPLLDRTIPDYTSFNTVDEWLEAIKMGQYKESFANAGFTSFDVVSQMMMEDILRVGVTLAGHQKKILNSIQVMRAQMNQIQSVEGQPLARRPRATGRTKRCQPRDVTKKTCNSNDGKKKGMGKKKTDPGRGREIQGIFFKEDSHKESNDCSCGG
# [7] = biological target: T7, ABL1(E255K)-phosphorylated (Homo sapiens, UniProt P00519, E255K); conditions: for difference in %Control from reference Ib at 1 µM: read-out: % difference (compound - Ib %Control)
# T7 construct: purchased Eurofins DiscoverX KINOMEscan (scanTK)
# [8] = biological target: T8, FLT3-autoinhibited (Homo sapiens, UniProt P36888)
# T8 construct: purchased Eurofins DiscoverX KINOMEscan (scanTK)
# T8 sequence (P36888 27-993): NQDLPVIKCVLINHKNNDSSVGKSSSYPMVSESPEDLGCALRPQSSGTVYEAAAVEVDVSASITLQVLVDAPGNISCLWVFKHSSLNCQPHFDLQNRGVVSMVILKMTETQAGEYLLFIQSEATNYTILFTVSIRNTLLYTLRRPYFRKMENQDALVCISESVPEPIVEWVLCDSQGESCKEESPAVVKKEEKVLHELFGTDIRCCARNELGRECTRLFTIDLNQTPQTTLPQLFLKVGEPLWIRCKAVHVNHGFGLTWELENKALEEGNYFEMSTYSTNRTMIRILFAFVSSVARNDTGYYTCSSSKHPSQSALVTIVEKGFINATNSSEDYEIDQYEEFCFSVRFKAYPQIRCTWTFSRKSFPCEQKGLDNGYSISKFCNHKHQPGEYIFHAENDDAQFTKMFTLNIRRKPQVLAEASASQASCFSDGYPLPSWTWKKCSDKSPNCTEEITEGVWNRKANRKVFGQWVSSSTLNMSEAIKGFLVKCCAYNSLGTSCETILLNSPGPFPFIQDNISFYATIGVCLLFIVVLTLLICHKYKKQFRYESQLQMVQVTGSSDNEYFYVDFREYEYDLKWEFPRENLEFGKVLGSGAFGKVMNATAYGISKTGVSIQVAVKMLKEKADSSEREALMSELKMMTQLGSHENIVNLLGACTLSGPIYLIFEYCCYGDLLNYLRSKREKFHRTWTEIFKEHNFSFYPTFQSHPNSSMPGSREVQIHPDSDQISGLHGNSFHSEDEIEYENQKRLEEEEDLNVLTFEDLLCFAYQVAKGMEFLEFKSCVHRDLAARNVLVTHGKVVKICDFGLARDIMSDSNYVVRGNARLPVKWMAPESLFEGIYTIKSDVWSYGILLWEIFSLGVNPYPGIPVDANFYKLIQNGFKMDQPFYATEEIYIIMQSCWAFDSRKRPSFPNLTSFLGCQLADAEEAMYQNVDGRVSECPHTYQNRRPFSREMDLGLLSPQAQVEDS
# [9] = biological target: T9, FAK (Homo sapiens, UniProt Q05397)
# T9 construct: purchased Eurofins DiscoverX KINOMEscan (scanTK)
# T9 sequence (Q05397 whole entry): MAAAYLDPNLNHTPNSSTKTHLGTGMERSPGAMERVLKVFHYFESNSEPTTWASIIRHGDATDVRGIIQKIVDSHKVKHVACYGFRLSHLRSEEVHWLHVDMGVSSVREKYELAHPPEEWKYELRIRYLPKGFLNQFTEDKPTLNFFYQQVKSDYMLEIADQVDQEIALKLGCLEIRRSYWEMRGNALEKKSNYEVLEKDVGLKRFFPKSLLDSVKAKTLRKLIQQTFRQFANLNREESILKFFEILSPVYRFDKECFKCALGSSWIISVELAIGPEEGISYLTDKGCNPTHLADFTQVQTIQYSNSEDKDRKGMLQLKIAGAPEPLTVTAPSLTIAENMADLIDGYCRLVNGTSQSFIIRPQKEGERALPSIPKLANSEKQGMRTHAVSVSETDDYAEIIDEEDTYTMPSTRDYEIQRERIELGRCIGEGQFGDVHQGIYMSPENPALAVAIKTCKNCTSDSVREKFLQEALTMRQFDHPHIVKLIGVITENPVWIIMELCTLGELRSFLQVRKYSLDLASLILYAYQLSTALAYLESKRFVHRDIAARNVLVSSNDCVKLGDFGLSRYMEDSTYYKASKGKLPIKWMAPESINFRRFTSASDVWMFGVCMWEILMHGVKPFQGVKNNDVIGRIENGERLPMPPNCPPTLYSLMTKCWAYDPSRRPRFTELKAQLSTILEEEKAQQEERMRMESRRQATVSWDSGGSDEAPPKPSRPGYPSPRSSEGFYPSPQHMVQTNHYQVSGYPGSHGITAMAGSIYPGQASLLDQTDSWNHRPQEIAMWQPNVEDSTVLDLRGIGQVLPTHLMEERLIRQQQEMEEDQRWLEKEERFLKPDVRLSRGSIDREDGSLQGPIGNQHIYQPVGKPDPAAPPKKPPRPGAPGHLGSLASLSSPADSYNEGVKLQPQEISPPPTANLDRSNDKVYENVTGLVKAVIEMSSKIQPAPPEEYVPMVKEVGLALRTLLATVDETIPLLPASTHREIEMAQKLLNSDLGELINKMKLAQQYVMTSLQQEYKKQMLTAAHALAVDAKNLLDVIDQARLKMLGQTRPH
# [10] = biological target: T10, BRK (Homo sapiens, UniProt Q13882)
# T10 construct: purchased Eurofins DiscoverX KINOMEscan (scanTK)
# T10 sequence (Q13882 whole entry): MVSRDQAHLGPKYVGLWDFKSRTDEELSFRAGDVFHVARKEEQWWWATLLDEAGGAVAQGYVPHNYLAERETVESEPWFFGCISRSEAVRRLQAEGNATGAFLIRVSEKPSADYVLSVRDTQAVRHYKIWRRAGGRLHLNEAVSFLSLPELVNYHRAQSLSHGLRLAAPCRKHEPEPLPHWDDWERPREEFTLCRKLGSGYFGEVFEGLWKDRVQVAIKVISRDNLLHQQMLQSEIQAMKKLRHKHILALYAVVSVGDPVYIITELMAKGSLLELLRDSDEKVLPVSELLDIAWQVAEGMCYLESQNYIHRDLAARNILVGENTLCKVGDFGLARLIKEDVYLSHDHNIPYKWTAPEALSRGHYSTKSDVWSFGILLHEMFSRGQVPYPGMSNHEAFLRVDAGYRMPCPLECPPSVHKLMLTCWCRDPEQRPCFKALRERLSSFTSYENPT
# [11] = biological target: T11, SYK (Homo sapiens, UniProt P43405)
# T11 construct: purchased Eurofins DiscoverX KINOMEscan (scanTK)
# [12] = biological target: T12, SRC (Homo sapiens, UniProt P12931)
# T12 construct: purchased Eurofins DiscoverX KINOMEscan (scanTK)
# T2 sequence (Q07912 whole entry): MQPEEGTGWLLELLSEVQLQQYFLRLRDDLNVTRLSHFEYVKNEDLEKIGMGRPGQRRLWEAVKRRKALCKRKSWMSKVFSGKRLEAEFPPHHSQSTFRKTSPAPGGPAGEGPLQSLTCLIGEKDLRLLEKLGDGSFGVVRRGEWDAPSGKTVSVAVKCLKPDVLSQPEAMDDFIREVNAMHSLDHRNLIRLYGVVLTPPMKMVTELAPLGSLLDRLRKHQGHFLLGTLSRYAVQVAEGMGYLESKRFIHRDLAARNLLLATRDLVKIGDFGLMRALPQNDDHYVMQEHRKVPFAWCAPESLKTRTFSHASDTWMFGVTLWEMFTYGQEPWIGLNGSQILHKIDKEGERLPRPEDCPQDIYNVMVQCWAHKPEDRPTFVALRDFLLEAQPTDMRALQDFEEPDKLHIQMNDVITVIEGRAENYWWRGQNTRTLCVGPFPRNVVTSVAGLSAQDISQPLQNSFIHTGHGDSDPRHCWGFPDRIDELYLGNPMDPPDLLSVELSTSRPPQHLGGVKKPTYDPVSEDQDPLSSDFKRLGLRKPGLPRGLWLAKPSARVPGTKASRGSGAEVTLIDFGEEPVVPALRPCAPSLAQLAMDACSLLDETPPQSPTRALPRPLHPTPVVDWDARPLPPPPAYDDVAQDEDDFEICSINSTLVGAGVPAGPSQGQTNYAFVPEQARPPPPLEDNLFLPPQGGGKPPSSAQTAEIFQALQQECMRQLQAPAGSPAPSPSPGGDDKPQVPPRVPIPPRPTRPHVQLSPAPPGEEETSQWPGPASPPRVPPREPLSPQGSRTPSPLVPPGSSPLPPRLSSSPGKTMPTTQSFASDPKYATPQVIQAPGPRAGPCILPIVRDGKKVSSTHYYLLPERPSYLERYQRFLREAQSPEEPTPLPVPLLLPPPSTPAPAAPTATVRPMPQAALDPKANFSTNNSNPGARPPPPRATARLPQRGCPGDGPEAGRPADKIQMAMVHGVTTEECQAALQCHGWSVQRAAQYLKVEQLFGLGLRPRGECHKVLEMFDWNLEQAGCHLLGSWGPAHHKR
SMILES,"remaining binding at 1 µM ([1]; @1000nM, read-out: %Control)",remaining binding at 1 µM ([1]; read-out: %Control @1000nM),"remaining binding at 1 µM ([2]; @1000nM, read-out: %Control)",remaining binding at 1 µM ([2]; read-out: %Control @1000nM),"remaining binding at 1 µM ([3]; @1000nM, read-out: %Control)",remaining binding at 1 µM ([3]; read-out: %Control @1000nM),"remaining binding at 1 µM ([4]; @1000nM, read-out: %Control)",remaining binding at 1 µM ([4]; read-out: %Control @1000nM),"remaining binding at 1 µM ([5]; @1000nM, read-out: %Control)",remaining binding at 1 µM ([5]; read-out: %Control @1000nM),"remaining binding at 1 µM ([6]; @1000nM, read-out: %Control)",remaining binding at 1 µM ([6]; read-out: %Control @1000nM),"remaining binding at 1 µM ([7]; @1000nM, read-out: %Control)",remaining binding at 1 µM ([7]; read-out: %Control @1000nM),"remaining binding at 1 µM ([9]; @1000nM, read-out: %Control)",remaining binding at 1 µM ([9]; read-out: %Control @1000nM),"remaining binding at 1 µM ([10]; @1000nM, read-out: %Control)",remaining binding at 1 µM ([10]; read-out: %Control @1000nM),"remaining binding at 1 µM ([11]; @1000nM, read-out: %Control)",remaining binding at 1 µM ([11]; read-out: %Control @1000nM),further results
"Cc1cnc(S(C)(=O)=O)nc1N1CCCC(n2nc(-c3ccc(Oc4ccccc4)cc3)c3c(N)ncnc32)C1 (stereo not shown) [Compound 8a, 1-(1-(5-Methyl-2-(methylsulfonyl)pyrimidin-4-yl)piperidin-3-yl)-3-(4-phenoxyphenyl)-1H-pyrazolo[3,4-d]pyrimidin-4-amine]",8.1%,8.1%,96%,96%,90%,90%,89%,89%,83%,83%,84%,84%,76%,76%,99%,99%,15%,15%,84%,84%,"difference in %Control from compound Ib at 1 µM ([5]; @1000nM): 6%; %Control difference from compound Ib at 1 µM ([6]; @1000nM): -16%; difference in %Control from reference Ib at 1 µM ([7]; @1000nM): 12%; difference in %Control vs compound Ib at 1 µM ([8]; @1000nM): -18%; remaining binding at 1 µM ([8]; @1000nM, read-out: %Control): 79%; remaining binding at 1 µM ([8]; read-out: %Control @1000nM): 79%; difference in %Control versus compound Ib at 1 µM ([9]; @1000nM): -1%; difference in %Control relative to compound Ib at 1 µM ([10]; @1000nM): 13.7%; difference in %Control versus compound Ib at 1 µM ([11]; @1000nM): -7%; remaining binding at 1 µM ([12]; @1000nM, read-out: %Control): 17%; remaining binding at 1 µM ([12]; read-out: %Control @1000nM): 17%"
"CCOC(=O)c1cnc(S(C)(=O)=O)nc1N1CCC[C@@H](n2nc(-c3ccc(Oc4ccccc4)cc3)c3c(N)ncnc32)C1 [Compound 8c, Ethyl (R)-4-(3-(4-Amino-3-(4-phenoxyphenyl)-1H-pyrazolo[3,4-d]pyrimidin-1-yl)piperidin-1-yl)-2-(methylsulfonyl)pyrimidine-5-carboxylate]",25%,25%,94%,94%,94%,94%,60%,60%,81%,81%,98%,98%,81%,81%,96%,96%,54%,54%,100%,100%,"difference in %Control from compound Ib at 1 µM ([5]; @1000nM): 4%; %Control difference from compound Ib at 1 µM ([6]; @1000nM): -2%; difference in %Control from reference Ib at 1 µM ([7]; @1000nM): 17%; difference in %Control vs compound Ib at 1 µM ([8]; @1000nM): 3%; remaining binding at 1 µM ([8]; @1000nM, read-out: %Control): 100%; remaining binding at 1 µM ([8]; read-out: %Control @1000nM): 100%; difference in %Control versus compound Ib at 1 µM ([9]; @1000nM): -4%; difference in %Control relative to compound Ib at 1 µM ([10]; @1000nM): 52.7%; difference in %Control versus compound Ib at 1 µM ([11]; @1000nM): 9%; remaining binding at 1 µM ([12]; @1000nM, read-out: %Control): 66%; remaining binding at 1 µM ([12]; read-out: %Control @1000nM): 66%"
"COC(=O)c1cnc(S(C)(=O)=O)nc1N1CCCC(n2nc(-c3ccc(Oc4ccccc4)cc3)c3c(N)ncnc32)C1 (stereo not shown) [Compound 8b, Methyl 4-(3-(4-Amino-3-(4-phenoxyphenyl)-1H-pyrazolo[3,4-d]pyrimidin-1-yl)piperidin-1-yl)-2-(methylsulfonyl)pyrimidine-5-carboxylate]",16%,16%,100%,100%,90%,90%,77%,77%,78%,78%,91%,91%,81%,81%,100%,100%,42%,42%,78%,78%,"difference in %Control from compound Ib at 1 µM ([5]; @1000nM): 1%; %Control difference from compound Ib at 1 µM ([6]; @1000nM): -9%; difference in %Control from reference Ib at 1 µM ([7]; @1000nM): 17%; difference in %Control vs compound Ib at 1 µM ([8]; @1000nM): -7%; remaining binding at 1 µM ([8]; @1000nM, read-out: %Control): 90%; remaining binding at 1 µM ([8]; read-out: %Control @1000nM): 90%; difference in %Control versus compound Ib at 1 µM ([9]; @1000nM): 0%; difference in %Control relative to compound Ib at 1 µM ([10]; @1000nM): 40.7%; difference in %Control versus compound Ib at 1 µM ([11]; @1000nM): -13%; remaining binding at 1 µM ([12]; @1000nM, read-out: %Control): 60%; remaining binding at 1 µM ([12]; read-out: %Control @1000nM): 60%"
"C=CC(=O)N1CCC[C@@H](n2nc(-c3ccc(Oc4ccccc4)cc3)c3c(N)ncnc32)C1 [Compound 1g, Ibrutinib, reference compound]",,,,,71%,71%,57%,57%,77%,77%,100%,100%,64%,64%,100%,100%,1.3%,1.3%,91%,91%,
